Source: US6153589A, “2,3-epoxy alcohols, acids and derivatives as anti retroviral chemotherapeutic agents” (The United States of America as represented by the …, priority 1992, dated 2000)
Where two headings read alike, the source gives them in different places.

How the values were obtained:
HIV-2 protease = experiment: HIV protease cleavage of nonapeptide (HPLC); format: biochemical; settings: 0.5 μl of 10 μg/μl inhibitor in DMSO per 10 μl reaction; pH 6.5, room temperature; pentapeptide product relative to DMSO control; sampled at ca. 16 and 40 hr (time not given)
Method in brief: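 Nonapeptide substrate Val-Ser-Gln-Asn-Tyr-Pro-Ile-Val-Gln-NH2 incubated with protease (ca. 100 ng) in 200 mM sodium phosphate, 1 M NaCl, 5% glycerol, 0.25% NP-40, pH 6.5, at room temperature with inhibitor added from a 10 μg/μl DMSO stock. Samples taken at ca. 16 and 40 h; RP-HPLC (206 nm) measured pentapeptide product relative to DMSO control.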

porcine Renin = biological target: T1, porcine Renin (Sus scrofa, UniProt A0A287APG1); experiment: Porcine Renin cleavage of porcine tetradecapeptide (HPLC); format: biochemical; settings: 0.5 μl of 50 μg/μl inhibitor in DMSO in 50 μl; pH 6.00, room temperature, 70 min; relative to uninhibited control
T1 construct: purchased Sigma
T1 sequence (A0A287APG1 24-407): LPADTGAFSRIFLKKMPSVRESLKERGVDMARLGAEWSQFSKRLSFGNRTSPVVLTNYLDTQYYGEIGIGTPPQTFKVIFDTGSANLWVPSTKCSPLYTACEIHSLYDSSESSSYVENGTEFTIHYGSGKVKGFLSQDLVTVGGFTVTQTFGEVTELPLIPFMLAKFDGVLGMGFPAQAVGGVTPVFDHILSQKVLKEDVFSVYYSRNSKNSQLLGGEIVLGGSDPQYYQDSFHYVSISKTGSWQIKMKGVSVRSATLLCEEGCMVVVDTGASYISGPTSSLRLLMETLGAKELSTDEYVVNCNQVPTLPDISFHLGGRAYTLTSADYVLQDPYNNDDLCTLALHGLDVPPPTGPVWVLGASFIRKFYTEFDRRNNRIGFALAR
Text: Renin Activity: Porcine Renin Cleavage of Porcine Tetradecapeptide
Proteolytic enzymes are ubiquitous in many living systems. Renin is an asparxyl protease found in mammals which is responsible for the regulation of blood pressure. Structural and functional similarities between Renin and retroviral proteases have been previously noted (Pearl, L. H., Taylor, W. R., (1987) Nature, 329, 351-354). Consequently, successful therapeutic inhibition of retroviral proteases depends on the ability of the inhibitor to inhibit the retroviral enzyme while having a greatly diminished effect on normally occurring enzymes like Renin. The failure to inhibit the desired enzyme selectively may have an adverse effect on normal biochemical functions. The similarity of Renin to retroviral proteases and its viral normal bodily function makes it an attractive system in which to examine inhibitory selectivity.
Renin activity was determined by a method similar to that described above for the HIV protease. A solution containing 0.37 m unit (0.5 μl of stock solution containing 0.75 m unit/μl) of porcine Renin (Sigma) was added to 5 μg of porcine angiotensinogen in 50 μl of 0.1 M citrate-phosphate buffer (pH 6.00) containing 0.25% NP-40. A DMSO solution containing the inhibitor (0.5 μl of a 50 μg/μl solution) was added and the reaction was allowed to incubate at room temperature for 70 min. The entire mixture was analyzed by HPLC chromatographic analysis was perforemd on a 4.6×250 mm Lichrosorb RP-18 column eluting with a gradient of 0-50% acetonitrile in 0.02 M KH2 Po4 (pH 4.7) over 30 min monitoring absorbance at 206 nm. Appearance of both the tetrapeptide and the decapeptide products may be monitored under these conditions. Enzyme activity is expressed as the amount of tetrapeptide produced relative to an uninhibited control, and are summarized in Table 3 below.

Rous Sarcoma Virus = settings: in vitro; literature report; cited from earlier work
Murine Leukemia Virus = settings: in vitro; literature report; cited from earlier work
[1] = literature report; cited from earlier work
HIV infected cells = settings: literature report; cited from earlier work
fatty acid synthesis = settings: literature report; cited from earlier work
HIV1 IIIb = experiment: microbe, parasite or virus in culture; format: cell-based; settings: Human immunodeficiency virus 1, IIIB; for viability at 10 µg/mL: 10 ug/ml; for viability at 80.2 µg/mL: 80.2 ug/ml; for viability at 23.8 µg/mL: 23.8 ug/ml; for viability at 14 µg/mL: 14 ug/ml; for viability at 140 µg/mL: 140 ug/ml; for viability at 38 µg/mL: 38 ug/ml; for viability at 35.2 µg/mL: 35.2 ug/ml; for viability at 20.7 µg/mL: 20.7 ug/ml; for viability at 3.52 µg/mL: 3.52 ug/ml
Method in brief: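 Human host cells infected with HIV1 IIIb (virus-producing H9 cells or cell-free virus) and incubated seven days with compound. Viable cells measured by XTT formazan absorbance; response expressed as % of uninfected controls against virus kill %. Some cultures redosed after 3 days.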

In the case of `C/C=C/C/C=C/CCC(=O)[C@H]1O[C@H]1C(N)=O` [Cerulenin, 4-Oxo-2R,3S-epoxy-trans,trans-2,5-dodecadienyl amide], the “Percent Control Cleavage of Nonapeptide HIV-1 Cleavage Site Fragment” value (“Percent Control Cleavage” below) (HIV-2 protease) is given as 10%, the “Percent control (tetrapeptide produced)” value (porcine Renin) is given as 68% and the “antiretroviral activity against Rous Sarcoma Virus” value (Rous Sarcoma Virus) is given as “exhibit antiretroviral activity”. The “antiretroviral activity against Murine Leukemia Virus” value (Murine Leukemia Virus) was “exhibit antiretroviral activity”, the toxicity [1] was “relatively high toxicity” and the “inhibition of viral polyprotein processing” value (HIV infected cells) was “inhibit viral polyprotein processing”. For the same compound, the “inhibition of fatty acid synthesis” value (fatty acid synthesis) was “potent inhibitor of fatty acid synthesis”.

For `CCCCCCC[C@H]1O[C@H]1CO` [Example 15, (2S-cis)-3-Heptyloxirane Methanol], the “Percent Control Cleavage” value (HIV-2 protease) was 59%, the “Percent control (tetrapeptide produced)” value (porcine Renin) was 86% and the viability at 92 µg/mL (HIV1 IIIb; 168 h, read-out: Antiviral Effect (viable cells as % of uninfected controls), run 3, 92 ug/ml, source V (cell free virus), virus kill 35.0%) was 60.8%. The viability at 10 µg/mL (HIV1 IIIb; 168 h, read-out: Antiviral Effect (viable cells as % of uninfected controls), run 4, source V (cell free virus), virus kill 57.0%) was 78.2%, the viability at 10 µg/mL (HIV1 IIIb; 168 h, read-out: Antiviral Effect (viable cells as % of uninfected controls), run 5, source V (cell free virus), virus kill 26.0%) was 58.6% and the viability at 21.6 µg/mL (HIV1 IIIb; 168 h, read-out: Antiviral Effect (viable cells as % of uninfected controls), run 6*, 21.6 ug/ml, source V (cell free virus), virus kill 31.0%, culture redosed with compound after 3 days) was 32%. The viability at 46 µg/mL (HIV1 IIIb; H9, 168 h, read-out: Antiviral Effect (viable cells as % of uninfected controls), run 1, 46 ug/ml, source C (virus producing H9 cells), virus kill 15.0%) was 58.3% and the viability at 4.6 µg/mL (HIV1 IIIb; H9, 168 h, read-out: Antiviral Effect (viable cells as % of uninfected controls), run 2, 4.6 ug/ml, source C (virus producing H9 cells), virus kill 13.0%) was 11.8%.

With `CCCCCCC[C@@H]1O[C@@H]1CO` [Example 16, (2R-cis)-3-Heptyloxirane Methanol] the “Percent Control Cleavage” value (HIV-2 protease) was 42%, the “Percent control (tetrapeptide produced)” value (porcine Renin) was 96% and the viability at 160 µg/mL (HIV1 IIIb; 168 h, read-out: Antiviral Effect (viable cells as % of uninfected controls), run 4, 160 ug/ml, source V (cell free virus), virus kill 40.0%) was 62.6%. The viability at 80.2 µg/mL (HIV1 IIIb; 168 h, read-out: Antiviral Effect (viable cells as % of uninfected controls), run 5, source V (cell free virus), virus kill 60.0%) was 97.3%, the viability at 80.2 µg/mL (HIV1 IIIb; 168 h, read-out: Antiviral Effect (viable cells as % of uninfected controls), run 6, source V (cell free virus), virus kill 30.0%) was 88.6% and the viability at 23.8 µg/mL (HIV1 IIIb; 168 h, read-out: Antiviral Effect (viable cells as % of uninfected controls), run 7, source V (cell free virus), virus kill 22.0%) was 35.9%. For the same compound, the viability at 23.8 µg/mL (HIV1 IIIb; 168 h, read-out: Antiviral Effect (viable cells as % of uninfected controls), run 8*, source V (cell free virus), virus kill 28.0%, culture redosed with compound after 3 days) was 39.7%, the viability at 10.6 µg/mL (HIV1 IIIb; H9, 168 h, read-out: Antiviral Effect (viable cells as % of uninfected controls), run 1, 10.6 ug/ml, source C (virus producing H9 cells), virus kill 14.0%) was 27.3% and the viability at 80.2 µg/mL (HIV1 IIIb; H9, 168 h, read-out: Antiviral Effect (viable cells as % of uninfected controls), run 2, source C (virus producing H9 cells), virus kill 15.0%) was 69.6%. For the same compound, the viability at 80.2 µg/mL (HIV1 IIIb; H9, 168 h, read-out: Antiviral Effect (viable cells as % of uninfected controls), run 3, source C (virus producing H9 cells), virus kill 15.0%) was 84.5%.

For `CCCCCCCCC[C@H]1O[C@H]1C(N)=O` [Example 23, (2R-cis)-3-Nonyloxiranecarboxy Amide], the “Percent Control Cleavage” value (HIV-2 protease) was 102%, the “Percent control (tetrapeptide produced)” value (porcine Renin) was 88% and the viability at 2.8 µg/mL (HIV1 IIIb; 168 h, read-out: Antiviral Effect (viable cells as % of uninfected controls), run 7, 2.8 ug/ml, source V (cell free virus), virus kill 19.0%) was 108%. The viability at 7.6 µg/mL (HIV1 IIIb; 168 h, read-out: Antiviral Effect (viable cells as % of uninfected controls), run 8, 7.6 ug/ml, source V (cell free virus), virus kill 30.0%) was 40.2%, the viability at 3.8 µg/mL (HIV1 IIIb; 168 h, read-out: Antiviral Effect (viable cells as % of uninfected controls), run 9, 3.8 ug/ml, source V (cell free virus), virus kill 52.0%) was 60.1% and the viability at 14 µg/mL (HIV1 IIIb; 168 h, read-out: Antiviral Effect (viable cells as % of uninfected controls), run 10, source V (cell free virus), virus kill 52.0%) was 60.1%. For the same compound, the viability at 380 µg/mL (HIV1 IIIb; 168 h, read-out: Antiviral Effect (viable cells as % of uninfected controls), run 11, 380 ug/ml, source V (cell free virus), virus kill 20.0%) was 24%, the viability at 140 µg/mL (HIV1 IIIb; 168 h, read-out: Antiviral Effect (viable cells as % of uninfected controls), run 12, source V (cell free virus), virus kill 20.0%) was 31% and the viability at 27 µg/mL (HIV1 IIIb; 168 h, read-out: Antiviral Effect (viable cells as % of uninfected controls), run 13*, 27 ug/ml, source V (cell free virus), virus kill 22.0%, culture redosed with compound after 3 days) was 79.6%. For the same compound, the viability at 28 µg/mL (HIV1 IIIb; H9, 168 h, read-out: Antiviral Effect (viable cells as % of uninfected controls), run 1, 28 ug/ml, source C (virus producing H9 cells), virus kill 6.0%) was 75.6%, the viability at 76 µg/mL (HIV1 IIIb; H9, 168 h, read-out: Antiviral Effect (viable cells as % of uninfected controls), run 2, 76 ug/ml, source C (virus producing H9 cells), virus kill 17.0%) was 28.5% and the viability at 38 µg/mL (HIV1 IIIb; H9, 168 h, read-out: Antiviral Effect (viable cells as % of uninfected controls), run 3, source C (virus producing H9 cells), virus kill 14.0%) was 35.1%. It also gave a viability at 140 µg/mL (HIV1 IIIb; H9, 168 h, read-out: Antiviral Effect (viable cells as % of uninfected controls), run 4, source C (virus producing H9 cells), virus kill 14.0%) of 25.1%, a viability at 38 µg/mL (HIV1 IIIb; H9, 168 h, read-out: Antiviral Effect (viable cells as % of uninfected controls), run 5, source C (virus producing H9 cells), virus kill 17.0%) of 17% and a viability at 14 µg/mL (HIV1 IIIb; H9, 168 h, read-out: Antiviral Effect (viable cells as % of uninfected controls), run 6, source C (virus producing H9 cells), virus kill 17.0%) of 16%.

In the case of `CCCCCCCCC[C@@H]1O[C@@H]1C(N)=O` [Example 24, (2S-cis)-3-Nonyloxiranecarboxy Amide], the “Percent Control Cleavage” value (HIV-2 protease) is reported as 113%, the “Percent control (tetrapeptide produced)” value (porcine Renin) is reported as 106% and the viability at 35.2 µg/mL (HIV1 IIIb; 168 h, read-out: Antiviral Effect (viable cells as % of uninfected controls), run 5, source V (cell free virus), virus kill 54.6%) is reported as 73%. For the same compound, the viability at 20.7 µg/mL (HIV1 IIIb; 168 h, read-out: Antiviral Effect (viable cells as % of uninfected controls), run 6, source V (cell free virus), virus kill 54.6%) was 71.4%, the viability at 3.52 µg/mL (HIV1 IIIb; 168 h, read-out: Antiviral Effect (viable cells as % of uninfected controls), run 7, source V (cell free virus), virus kill 26.0%) was 28.1% and the viability at 20.7 µg/mL (HIV1 IIIb; 168 h, read-out: Antiviral Effect (viable cells as % of uninfected controls), run 8, source V (cell free virus), virus kill 26.0%) was 34%. It also gave a viability at 1.34 µg/mL (HIV1 IIIb; 168 h, read-out: Antiviral Effect (viable cells as % of uninfected controls), run 9, 1.34 ug/ml, source V (cell free virus), virus kill 20.0%) of 41.7%, a viability at 0.135 µg/mL (HIV1 IIIb; 168 h, read-out: Antiviral Effect (viable cells as % of uninfected controls), run 10*, 0.135 ug/ml, source V (cell free virus), virus kill 23.0%, culture redosed with compound after 3 days) of 114% and a viability at 35.2 µg/mL (HIV1 IIIb; H9, 168 h, read-out: Antiviral Effect (viable cells as % of uninfected controls), run 1, source C (virus producing H9 cells), virus kill 16.0%) of 73%. The viability at 20.7 µg/mL (HIV1 IIIb; H9, 168 h, read-out: Antiviral Effect (viable cells as % of uninfected controls), run 2, source C (virus producing H9 cells), virus kill 16.0%) was 67.4%, the viability at 3.52 µg/mL (HIV1 IIIb; H9, 168 h, read-out: Antiviral Effect (viable cells as % of uninfected controls), run 3, source C (virus producing H9 cells), virus kill 9.0%) was 11.3% and the viability at 2.07 µg/mL (HIV1 IIIb; H9, 168 h, read-out: Antiviral Effect (viable cells as % of uninfected controls), run 4, 2.07 ug/ml, source C (virus producing H9 cells), virus kill 9.0%) was 10.5%.
